Assay results taken from patent publication EP0525814A1, “Use of di-tertbutylhydroxyphenyl derivatives for the therapy of inflammatory conditions of the gastrointestinal tract” (BOEHRINGER MANNHEIM GMBH, priority 1991, dated 1993).

Tested on: Akute Kolitis
Assay: Acetic acid-induced acute colitis in rats, morphological evaluation of the mucosa by image analysis
Type: in vivo, Ratten
Details: rat, 3 x 200 mg/kg p.o.; for Anteil von Mukosabereichen Schädigungsstufe 0 (ohne Befund) an der Gesamtfläche des untersuchten Darmbereichs / Anteil von Mukosabereichen Schädigungsstufe 1 (Schwellung des Gewebes mit leichter Rötung) an der Gesamtfläche des untersuchten Darmbereichs / Anteil von Mukosabereichen Schädigungsstufe 2 (starke Rötung des Gewebes mit Einblutungen oder ulcerierenden Nekrosen) an der Gesamtfläche des untersuchten Darmbereichs: rectum and parts of distal colon, 3 days after induction with 5% acetic acid, mean ± spread
[1] = change versus control in words, p<0,01

Description: Beispiel 1 und Probucol wurden in einer Dosierung von 200 mg/kg/d 3 mal oral verabreicht. Die Behandlung wurde einen Tag vor Entzündungsinduktion mit 5% Essigsäure begonnen. […] Das Ausmaß einer entzündlichen Reaktion im Darm wird durch Begutachtung des Mukosa-Zustandes und Klassifizierung nach festgelegten Parametern bestimmt.
Akute Kolitis wurde bei 24 h nüchternen Ratten durch rektale Instillation von 5% Essigsäure (1,5ml/Tier) über eine 8 cm lange Sonde induziert. Die morphologische Auswertung des Mukosazustandes aus dem Rektum und Teilen des distalen Kolons (ca. 8 cm) erfolgte am 3. Tag nach Entzündungsinduktion, nachdem die Tiere getötet worden waren. Beispiel 1 und Probucol wurden in einer Dosierung von 200 mg/kg/d 3 mal p.o. (2,5 ml/kg) verabreicht. Die erste Gabe erfolgte 24 h vor Essigsäure-Applikation. Kontrolltieren wurde das Substanzlösungsmittel (20% DMSO in Öl) verabreicht.
Die morphologische Auswertung erfolgte an einem computergeschützten Bildanalyse-System. Es wurde der Anteil von entzündetem Gewebe an der Gesamtdarmoberfläche bestimmt. Folgende Schädigungsstufen wurden unterschieden: • - Stufe 0 : ohne Befund • - Stufe 1 : Schwellung des Gewebes mit leichter Rötung • - Stufe 2 : starke Rötung des Gewebes mit Einblutungen oder ulcerierenden Nekrosen

Row | Compound | Anteil von Mukosabereichen Schädigungsstufe 0 (ohne Befund) an der Gesamtfläche des untersuchten Darmbereichs | Anteil von Mukosabereichen Schädigungsstufe 1 (Schwellung des Gewebes mit leichter Rötung) an der Gesamtfläche des untersuchten Darmbereichs | Anteil von Mukosabereichen Schädigungsstufe 2 (starke Rötung des Gewebes mit Einblutungen oder ulcerierenden Nekrosen) an der Gesamtfläche des untersuchten Darmbereichs | nur noch geschwollene Gewebebereiche (Schädigungsstufe 1) [1] | stark geschädigte Darmanteile (Schädigungsstufe 2) [1] | größere, morphologisch normale Gewebebereiche (Schädigungsstufe 0) (result in words, p<0,01 versus control) | Einfluß auf die durch Essigsäure-Applikation hervorgerufenen Mukosaschädigungen (result in words)
1 | CC(C)(C)c1cc(CCNC(=O)CCc2cc(C(C)(C)C)c(O)c(C(C)(C)C)c2)cc(C(C)(C)C)c1O [Beispiel 1] | 17,20 ± 8,93 % | 66,96 ± 8,31 % | 15,75 ± 6,24 % | Zunahme | deutlicher Abnahme | nachweisbar | –
2 | CC(C)(Sc1cc(C(C)(C)C)c(O)c(C(C)(C)C)c1)Sc1cc(C(C)(C)C)c(O)c(C(C)(C)C)c1 [Probucol, reference compound] | 0,12 ± 0,09% | 52,78 ± 9,36% | 47,19 ± 9,36% | – | – | – | keinen Einfluß
